Our source for the T/C values is PubChem BioAssay AID252 (DTP/NCI, 2004).

Where “and” joins values, the source holds several entries; their conditions need not be identical. Equal entries are not always repeated. Inconclusive results and toxic doses are left out.

In the test the test system is BDF1 mice, intracerebral L1210 leukemia, survival T/C. Description: NCI In Vivo Anticancer Drug Screen. Data for tumor model L1210 Leukemia (intracerebral) in B6D2F1 (BDF1) mice. To be noted: higher = longer survival. Summed up:
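Transplantable tumour-bearing mice, compound-treated vs vehicle controls; read-out survival, reported as T/C ratio.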

The mark [1] stands for this setting: endpoint: mean survival time, dose: 60.0 mg/kg/injection, schedule: Q01DX001 (ip), vehicle: other.
Where [2] appears, read: endpoint: mean survival time, dose: 90.0 mg/kg/injection, schedule: Q01DX001 (ip), vehicle: other.

Regarding `O=NN(CCCl)C(=O)NC1CCCCCCCCCCC1`, the T/C was 103 % of control (endpoint: mean survival time, dose: 298.0 mg/kg/injection, schedule: Q01DX001 (ip), vehicle: other); 124 % of control (endpoint: mean survival time, dose: 550.0 mg/kg/injection, schedule: Q01DX001 (ip), vehicle: other); 108 % of control (endpoint: mean survival time, dose: 596.0 mg/kg/injection, schedule: Q01DX001 (ip), vehicle: other); 159 % of control and 160 % of control (endpoint: mean survival time, dose: 1250.0 mg/kg/injection, schedule: Q01DX001 (ip), vehicle: other); 123 % of control (endpoint: mean survival time, dose: 1875.0 mg/kg/injection, schedule: Q01DX001 (ip), vehicle: other); 110 % of control (endpoint: mean survival time, dose: 2384.0 mg/kg/injection, schedule: Q01DX001 (ip), vehicle: other).
For `O=NN(CCF)C(=O)NCCCl`, the T/C is 156 % of control and 203 % of control (endpoint: mean survival time, dose: 9.0 mg/kg/injection, schedule: Q01DX001 (ip), vehicle: Klucel (hydroxypropylcellulose) (HPC)); 233 % of control and 338 % of control (endpoint: mean survival time, dose: 14.0 mg/kg/injection, schedule: Q01DX001 (ip), vehicle: Klucel (hydroxypropylcellulose) (HPC)); 456 % of control and 513 % of control (endpoint: mean survival time, dose: 21.0 mg/kg/injection, schedule: Q01DX001 (ip), vehicle: Klucel (hydroxypropylcellulose) (HPC)); 622 % of control and 710 % of control (endpoint: mean survival time, dose: 32.0 mg/kg/injection, schedule: Q01DX001 (ip), vehicle: Klucel (hydroxypropylcellulose) (HPC)); 727 % of control (endpoint: mean survival time, dose: 48.0 mg/kg/injection, schedule: Q01DX001 (ip), vehicle: Klucel (hydroxypropylcellulose) (HPC)); 228 % of control (endpoint: mean survival time, dose: 71.0 mg/kg/injection, schedule: Q01DX001 (ip), vehicle: Klucel (hydroxypropylcellulose) (HPC)).
As to `O=C(Nc1ccc(C2=NCCCN2)cc1)c1ccc(C(=O)Nc2ccc(C3=NCCCN3)cc2)cc1`, the T/C is, setting by setting: (endpoint: mean survival time, dose: 1.25 mg/kg/injection, schedule: Q01DX Z (ip), vehicle: carboxymethylcellulose (CMC)) 107 % of control; (endpoint: mean survival time, dose: 2.5 mg/kg/injection, schedule: Q01DX Z (ip), vehicle: carboxymethylcellulose (CMC)) 107 % of control; (endpoint: mean survival time, dose: 5.0 mg/kg/injection, schedule: Q01DX Z (ip), vehicle: carboxymethylcellulose (CMC)) 114 % of control; (endpoint: mean survival time, dose: 31.0 mg/kg/injection, schedule: Q01DX Z (ip), vehicle: carboxymethylcellulose (CMC)) 104 % of control.
For `N=c1ccn2c(n1)OC1C(O)C(CO)OC12` (centres undefined), the T/C reads like this: (endpoint: mean survival time, dose: 50.0 mg/kg/injection, schedule: Q01DX009 (oral), vehicle: saline) 220 % of control; (endpoint: mean survival time, dose: 50.0 mg/kg/injection, schedule: Q08DX009 (ip), vehicle: water) 175 % of control; (endpoint: mean survival time, dose: 100.0 mg/kg/injection, schedule: Q01DX009 (oral), vehicle: saline) 228 % of control; (endpoint: mean survival time, dose: 100.0 mg/kg/injection, schedule: Q01DX009 (oral), vehicle: water) 186 % of control; (endpoint: mean survival time, dose: 100.0 mg/kg/injection, schedule: Q08DX009 (ip), vehicle: water) 196 % of control; (endpoint: mean survival time, dose: 200.0 mg/kg/injection, schedule: Q01DX009 (oral), vehicle: saline) 255 % of control. The T/C is 201 % of control (endpoint: mean survival time, dose: 200.0 mg/kg/injection, schedule: Q01DX009 (oral), vehicle: water); 215 % of control and 258 % of control (endpoint: mean survival time, dose: 200.0 mg/kg/injection, schedule: Q08DX009 (ip), vehicle: water); 232 % of control and 217 % of control (endpoint: mean survival time, dose: 300.0 mg/kg/injection, schedule: Q08DX009 (ip), vehicle: water); 193 % of control (endpoint: mean survival time, dose: 400.0 mg/kg/injection, schedule: Q01DX009 (oral), vehicle: saline); 223 % of control (endpoint: mean survival time, dose: 400.0 mg/kg/injection, schedule: Q01DX009 (oral), vehicle: water); 285 % of control (endpoint: mean survival time, dose: 400.0 mg/kg/injection, schedule: Q08DX009 (ip), vehicle: water). In addition, the T/C is 167 % of control (endpoint: median survival time, dose: 65.0 mg/kg/injection, schedule: Q01DX009 (ip), vehicle: water); 196 % of control (endpoint: median survival time, dose: 100.0 mg/kg/injection, schedule: Q01DX009 (ip), vehicle: water); 176 % of control (endpoint: median survival time, dose: 108.0 mg/kg/injection, schedule: Q01DX009 (ip), vehicle: water); 223 % of control (endpoint: median survival time, dose: 200.0 mg/kg/injection, schedule: Q01DX009 (ip), vehicle: water); 354 % of control (endpoint: median survival time, dose: 400.0 mg/kg/injection, schedule: Q01DX009 (ip), vehicle: water).
In the case of `O=NN(CCCl)C(=O)Nc1ccc2ccccc2c1`, the T/C was 115 % of control (endpoint: mean survival time, dose: 137.0 mg/kg/injection, schedule: Q01DX001 (ip), vehicle: carboxymethylcellulose (CMC)); 103 % of control (endpoint: mean survival time, dose: 200.0 mg/kg/injection, schedule: Q01DX001 (ip), vehicle: carboxymethylcellulose (CMC)); 108 % of control (endpoint: mean survival time, dose: 300.0 mg/kg/injection, schedule: Q01DX001 (ip), vehicle: carboxymethylcellulose (CMC)).
Take `CCS(=O)(=O)Nc1cccc(Nc2c3cccc(C)c3nc3c(C)cccc23)c1OC`: the T/C is, setting by setting: (endpoint: mean survival time, dose: 12.5 mg/kg/injection, schedule: Q01DX009 (ip), vehicle: water) 117 % of control; (endpoint: mean survival time, dose: 12.5 mg/kg/injection, schedule: Q01DX009 (sc), vehicle: water) 105 % of control; (endpoint: mean survival time, dose: 25.0 mg/kg/injection, schedule: Q01DX009 (ip), vehicle: water) 92 % of control; (endpoint: mean survival time, dose: 25.0 mg/kg/injection, schedule: Q01DX009 (sc), vehicle: water) 118 % of control; (endpoint: mean survival time, dose: 50.0 mg/kg/injection, schedule: Q01DX009 (sc), vehicle: water) 113 % of control; (endpoint: mean survival time, dose: 100.0 mg/kg/injection, schedule: Q01DX009 (sc), vehicle: water) 104 % of control.
With `CCCCCCC(=O)NC1=C(N2CC2)C(=O)C(NC(=O)CCCCCC)=C(N2CC2)C1=O`, the T/C reads like this: (endpoint: mean survival time, dose: 20.0 mg/kg/injection, schedule: Q01DX009 (ip), vehicle: Klucel (hydroxypropylcellulose) (HPC)) 100 % of control; (endpoint: mean survival time, dose: 40.0 mg/kg/injection, schedule: Q01DX009 (ip), vehicle: Klucel (hydroxypropylcellulose) (HPC)) 105 % of control; (endpoint: mean survival time, dose: 80.0 mg/kg/injection, schedule: Q01DX009 (ip), vehicle: Klucel (hydroxypropylcellulose) (HPC)) 120 % of control; (endpoint: mean survival time, dose: 160.0 mg/kg/injection, schedule: Q01DX009 (ip), vehicle: Klucel (hydroxypropylcellulose) (HPC)) 106 % of control.
As to `COC(=O)c1ccccc1N=NN(C)C`, the T/C runs as follows: (endpoint: median survival time, dose: 10.0 mg/kg/injection, schedule: Q01DX009 (ip), vehicle: saline with Tween-80) 114 % of control; (endpoint: median survival time, dose: 20.0 mg/kg/injection, schedule: Q01DX009 (ip), vehicle: saline with Tween-80) 97 % of control.
As for `C[C@@H](CN1CC(=O)NC(=O)C1)N1CC(=O)NC(=O)C1`, the T/C by setting is: (endpoint: median survival time, dose: 8.0 mg/kg/injection, schedule: Q01DX009 (ip), vehicle: water) 112 % of control; (endpoint: median survival time, dose: 16.0 mg/kg/injection, schedule: Q01DX009 (ip), vehicle: water) 121 % of control and 123 % of control; (endpoint: median survival time, dose: 128.0 mg/kg/injection, schedule: Q01DX009 (ip), vehicle: water) 123 % of control; (endpoint: median survival time, dose: 256.0 mg/kg/injection, schedule: Q01DX009 (ip), vehicle: water) 111 % of control; (endpoint: median survival time, dose: 512.0 mg/kg/injection, schedule: Q01DX009 (ip), vehicle: water) 113 % of control.
Regarding `O=NN(CCCl)C(=O)NC1CCSc2ccccc21` (centres undefined), the T/C is, setting by setting: (endpoint: mean survival time, dose: 26.0 mg/kg/injection, schedule: Q01DX001 (ip), vehicle: other) 164 % of control; (endpoint: mean survival time, dose: 27.0 mg/kg/injection, schedule: Q01DX001 (ip), vehicle: other) 206 % of control; (endpoint: mean survival time, dose: 40.0 mg/kg/injection, schedule: Q01DX001 (ip), vehicle: other) 201 % of control and 261 % of control; under setting [1], 263 % of control and 288 % of control; under setting [2], 161 % of control and 222 % of control; (endpoint: mean survival time, dose: 135.0 mg/kg/injection, schedule: Q01DX001 (ip), vehicle: other) 230 % of control.
Regarding `CC12CC3(C)CC(C)(C1)CC(NC(=O)N(CCCl)N=O)(C2)C3`, the T/C was 95 % of control (endpoint: mean survival time, dose: 45.0 mg/kg/injection, schedule: Q01DX001 (ip), vehicle: other); 97 % of control under setting [1]; 104 % of control under setting [2]; 110 % of control (endpoint: mean survival time, dose: 125.0 mg/kg/injection, schedule: Q01DX001 (ip), vehicle: other); 112 % of control (endpoint: mean survival time, dose: 187.0 mg/kg/injection, schedule: Q01DX001 (ip), vehicle: other).
